Experimental data taken from patent publication US11224666B2, “Gadolinium contrast agents, scavenging methods, and scavenging system” (Boston Scientific Scimed, Inc., priority 2018, dated 2022).

Assay: example reaction demonstrating the sequestration reaction (strained alkyne with azide, in vitro, followed by NMR)
Conditions: allowed to react with azide-fluor 488 (representing a capture substrate), NMR tube

Compound: OC[C@H]1[C@H]2CCC#CCC[C@@H]12 [(1R,8S,9s)-Bicyclonon-4-yn-9-ylmethanol]
- course of the sequestration (click) reaction: complete before a nuclear magnetic resonance (NMR) tube containing the reaction constituents could be inserted into the probe
